Like-named read-outs stand apart in the source and are kept apart here.
Experiments:
PPARγ [1] = molecular target: T1, PPARγ (Mus musculus, UniProt P37238); assay: Ligand-induced coactivator interaction assay (GST-PPARγ / SRC-1); format: biochemical; conditions: for PPARγ-ligand activity, steroid + liver cytosol + PAPS / PPARγ-ligand activity, native steroid + liver cytosol: second experiment; for PPARγ-ligand activity, steroid + liver cytosol + PAPS: active liver cytosol, sulfate formed in situ; for PPARγ-ligand activity, native steroid + liver cytosol: without PAPS
T1 construct: made in house; host or cells: E. coli strain Y 1090 (GST-PPARγ); TNT Coupled Reticulocyte Lysate System, Promega (SRC-1)
Experimental: ApcDNA3-SRC-1 construct was used as template to prepare (^35S-methionine)-SRC-1 by in vitro transcription and translation using the TNT® Coupled Reticulocyte Lysate System (Promega).
Ligand-induced interactions between GST-PPARγ and SRC-1: To generate GST-PPARγ fusion protein, mouse PPARγcDNA was inserted into the NcoI-HindIII sites of pGEX-KG, and protein was then expressed in E. coli, strain Y 1090. The bacteria were lysed by sonication in TEDG buffer (50 mM Tris (pH 7.4), 1.5 mM EDTA, 10% glycerol, 0.4 M NaCl, 0.1 mM DTT) containing the following protease inhibitors: 0.5 mM PMSF, 1 mM benzamidine, 10 μg/ml leupeptin, 10 μg/ml antipain and […] aprotinin. The lysates were centrifuged at 100,000×g for 60 min in a SW 41 rotor using a Beckman L8-70 M ultracentrifuge. The fusion protein was immobilized on GSH Sepharose beads (Pharmacia) and then incubated with potential ligands in (FIG. 5) 10 mM Tris (pH7.4), 0.12 M KCl, 8% glycerol, 4 mM DTT, and 0.5% CHAPS (buffer AA) for 30 min at room temperature. Thereafter, (^35S methionine) SRC-1 (ca 0.1 μCi) was added, and the beads were incubated for another hour at 4° C. and then washed extensively with buffer A. SDS sample buffer was added to the beads, and the samples boiled prior to separation on 7.5% SDS-PAGE. Radioactivity was detected by autoradiography.
α- and β-AED were investigated in above assay for PPARγ ligand activity in 10 and 100 μM solutions in ethanol 10%, in distilled water. 10 μL aliquots of α-AED-solution or β-AED-solution were also added to a preparation of a male rat liver cytosolic preparation prepared as follows:
A homogenate of a rat liver, a known source of steroid sulphotransferase activity, was prepared using a food processor. The liver homogenate was protected from serine-proteases by the addition of 2 mmol of PMSF, 1 mmol of EDTA and 10 mmol Tris-HCl buffered to a pH of 7.40. The homogenate was prepared at 4° C. and then centrifuged at 15000 g for 10 minutes, followed by centrifugation at 100000 g for an hour at 4° C. The supernatant was divided into test tubes containing one of the following steroids: 17β-AED or 17α-AED in 5 μM concentration together with 100 μL of liver cytosol. One test tube served as positive control and contained SCR-1.
In a second experiment the following steroids were tested for activity: 17α-AED, 17OH-pregnenolone and 5-androstene-3β,7β,17α-triol with and without 10 μL of […] (PAPS), Sigma Chemicals, corresponding to 0.1 mg of PAPS. One test tube served as a positive control and contained SRC-1 Instead of steroid. One test tube contained liver cytosol where the steroid sulphotransferase was inactivated by heating to 45° C. for 30 minutes. Tubes were stirred at 20° C. for 1 hour and the contents were investigated in the receptor-coactivator assay for ligand activity (FIG. 5).
17α-AED was treated in the method described by Arnostova, Libuse M.; Pouzar, Vladimir; Drasar, Pavel. Inst. Org. Chem. Biochem., Czech. Acad. Sci., Prague, Czech. Synth. Commun. (1990), 20(10), 1521-9, where acetate is used as protection group and pyridine —SO3 complex as the sulfating agent. Deprotection with an excess of 0.8M NaOH in MeOH-water provides the desired hydroxy sulfate, which is investigated, for PPARγ-activity in the ligand-activated-coactivator receptor assay described above.

VEGF = assay: Immunostaining of tumour sections against VEGF; format: in vivo, rat; conditions: Animals II
Experimental: Working dilution 1:100. As negative control antibody a mouse IgG, clone DAK-GO1, kappa, ×931, Dako, was used with a working dilution of 1:50.
(§1) The animal experiment described above was repeated.
(§2) Group 1 received a single dose of 10 mg 17α-AED sc. near tumour.
(§3) Group 2 received a single dose of 80 mg 17β-AED in the same way.
(§4) Group 3 received a single dose of 25 mg 17α OH-pregnenolone in the same way.
(§5) Group 4 received a single dose of 7.5 mg 5-androstene-3β,7β,17α-triol.

β-catenin = assay: Western blotting of Dunning AT-1 rat prostate tumours; format: in vivo; conditions: Animals II; exposure 80 hours in all arms
Experimental: as §1
Thawed rat tumours from both experiments above were homogenized in ice cold lysis-buffer. (160 mM NaCl, 10 mM HEPES, 2 mM CaCl2, 5% SDS, 0.5% Triton X-100, 100 μg/ml phenyl-metylsulfonyl fluoride, 1 μg/ml leupeptin and 2 μg/ml aprotinin), placed on ice for 15 minutes and following clarification centrifuged for 10 minutes at 13,000 g. Protein content of homogenates were determined by Lowry assay.
Protein in lysates (90 μg) were separated by electrophoresis using 8% SDS-PAGE and separated proteins were transferred onto a nitrocellulose membrane (Amersham) in trans-blot electrophoretic transfer cell (Bio-Rad Laboratories).
After washing in TTBS the blots were reincubated with horseradish peroxidase conjugated secondary antibody (anti-goat antibodies 2020, Santa Cruz) diluted 1:4000 in TTBS containing 3% (w/v) non-fat, dried milk for one hour. Blots were developed using an enhanced chemiluminescence system (ECL, Amersham) and exposed to Hyperfilm ECL (Amersham). Optical density was measured densitometrically.
The blots were striped and rehybridized with antibodies against β-catenin (C-18, sc. 1496) and COX-2 (C-20, sc 1745) antibodies.
In the second animal experiment tumours were investigated for expression of β-catenin, COX-2 and cyclin D1 (A-12, sc. 8396).

cyclin D1 = assay: as above; format: in vivo; conditions: Animals II; exposure 80 hours in all arms
Experimental: as §1, §2, §3, §4, §5
Protein content of homogenates were determined by Lowry assay.

[2] = system: Dunning R 3327, AT-1, rat prostatic tumour; assay: Tumour growth after s.c. injection near tumour; format: in vivo; conditions: Animals II; single s.c. injection in the proximity of the tumour
Experimental: as §1, §2, §3, §4, §5
A fifth group served as tumour bearing controls.

PPARδ = assay: Western blotting cell lines; format: cell-based, human; conditions: PC-3 and DU-145
Source text: (§6) Protein blotting was repeated for DU-145 and PC-3 cell lines, which were also investigated for expression of PPARδ through antibody (H-74, sc 7197).

PPARγ [3] = assay: Western blotting cell lines; format: cell-based, human
Source text: as §6

PC-3 = assay: Facscan viability (chlorofluoresceindiacetate / propidiumiodide); format: cell-based, human; conditions: 200 nM 17α-AED + rat liver cytosol + PAPS, Herceptin 1:150, 72 hours
Experimental: (§7) Effects of HER-2 and 17α-AED-3β-sulfate in breast and prostate cancer cell lines. Cell cultures of prostate cancer cell lines PC-3 and DU-145 as well as mammary cancer cell lines MCF-7 and SKBR-3 were grown in flasks as previously described in the presence or absence of a 200 nM 17α-AED. Cultures containing 17α-AED were further subdivided and these cultures were grown in the presence or absence of Herceptin®, her-2 antibodies, using a stem solution of 1 mg/ml which was further diluted, making the final concentration 1:150 In the cell suspension.
(§8) Representations of each cell line containing no steroid were also treated with herceptin as above. For each cell line and variation of treatment 3 different culture flasks were used.
(§9) Further, a mixture of 100 μL rat liver cytosol and 20 μL of 3′-phosphoadenosine-5′-phosphosulphate (PAPS), corresponding to approximately 0.16 mg of PAPS was shared between and added to cultures containing 17α-AED.
(§10) Finally, for each cell line three samples were kept as untreated controls.
(§11) To estimate the number of viable cells a solution of chlorofluoresceindiacetate was added to the cultures on the last day of culture. This chemical penetrates freely into cells, but is metabolized in the living cell into a form with green fluorescence unable to leave the cell. As counterstaining, to detect dead cells, propidiumiodide, giving a red fluorescence, was added 15 minutes before analyzing the samples in a Facscan. Time for 10000 cells to pass the detector in the Facscan was estimated in order to detect a possible growth inhibitory effect, not resulting in an increased number of dead cells.

MCF-7 = assay: as above; format: cell-based, human; conditions: 200 nM 17α-AED + rat liver cytosol + PAPS, Herceptin 1:150, 72 hours
Experimental: as §7, §8, §9, §10, §11

DU-145 = assay: as above; format: cell-based, human; conditions: 200 nM 17α-AED + rat liver cytosol + PAPS, Herceptin 1:150, 72 hours
Experimental: as §7, §8, §9, §10, §11

SKBR-3 = assay: as above; format: cell-based, human; conditions: 200 nM 17α-AED + rat liver cytosol + PAPS, Herceptin 1:150, 72 hours
Experimental: as §7, §8, §9, §10, §11

T1 sequence (P37238 whole entry): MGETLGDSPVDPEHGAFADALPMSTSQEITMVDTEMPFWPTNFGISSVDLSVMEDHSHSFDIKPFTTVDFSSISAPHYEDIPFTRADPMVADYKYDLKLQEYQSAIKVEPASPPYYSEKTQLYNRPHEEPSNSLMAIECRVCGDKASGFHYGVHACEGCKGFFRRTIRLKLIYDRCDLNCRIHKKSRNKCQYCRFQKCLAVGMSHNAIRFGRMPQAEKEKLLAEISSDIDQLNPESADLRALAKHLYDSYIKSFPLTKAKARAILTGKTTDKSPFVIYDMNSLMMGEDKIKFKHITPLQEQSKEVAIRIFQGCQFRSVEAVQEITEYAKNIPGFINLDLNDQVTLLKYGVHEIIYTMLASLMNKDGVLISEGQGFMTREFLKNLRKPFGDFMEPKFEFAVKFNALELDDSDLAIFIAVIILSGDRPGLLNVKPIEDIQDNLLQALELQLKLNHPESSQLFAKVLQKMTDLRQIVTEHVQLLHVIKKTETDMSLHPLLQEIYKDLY
T1 sequence (Q15788 whole entry partner): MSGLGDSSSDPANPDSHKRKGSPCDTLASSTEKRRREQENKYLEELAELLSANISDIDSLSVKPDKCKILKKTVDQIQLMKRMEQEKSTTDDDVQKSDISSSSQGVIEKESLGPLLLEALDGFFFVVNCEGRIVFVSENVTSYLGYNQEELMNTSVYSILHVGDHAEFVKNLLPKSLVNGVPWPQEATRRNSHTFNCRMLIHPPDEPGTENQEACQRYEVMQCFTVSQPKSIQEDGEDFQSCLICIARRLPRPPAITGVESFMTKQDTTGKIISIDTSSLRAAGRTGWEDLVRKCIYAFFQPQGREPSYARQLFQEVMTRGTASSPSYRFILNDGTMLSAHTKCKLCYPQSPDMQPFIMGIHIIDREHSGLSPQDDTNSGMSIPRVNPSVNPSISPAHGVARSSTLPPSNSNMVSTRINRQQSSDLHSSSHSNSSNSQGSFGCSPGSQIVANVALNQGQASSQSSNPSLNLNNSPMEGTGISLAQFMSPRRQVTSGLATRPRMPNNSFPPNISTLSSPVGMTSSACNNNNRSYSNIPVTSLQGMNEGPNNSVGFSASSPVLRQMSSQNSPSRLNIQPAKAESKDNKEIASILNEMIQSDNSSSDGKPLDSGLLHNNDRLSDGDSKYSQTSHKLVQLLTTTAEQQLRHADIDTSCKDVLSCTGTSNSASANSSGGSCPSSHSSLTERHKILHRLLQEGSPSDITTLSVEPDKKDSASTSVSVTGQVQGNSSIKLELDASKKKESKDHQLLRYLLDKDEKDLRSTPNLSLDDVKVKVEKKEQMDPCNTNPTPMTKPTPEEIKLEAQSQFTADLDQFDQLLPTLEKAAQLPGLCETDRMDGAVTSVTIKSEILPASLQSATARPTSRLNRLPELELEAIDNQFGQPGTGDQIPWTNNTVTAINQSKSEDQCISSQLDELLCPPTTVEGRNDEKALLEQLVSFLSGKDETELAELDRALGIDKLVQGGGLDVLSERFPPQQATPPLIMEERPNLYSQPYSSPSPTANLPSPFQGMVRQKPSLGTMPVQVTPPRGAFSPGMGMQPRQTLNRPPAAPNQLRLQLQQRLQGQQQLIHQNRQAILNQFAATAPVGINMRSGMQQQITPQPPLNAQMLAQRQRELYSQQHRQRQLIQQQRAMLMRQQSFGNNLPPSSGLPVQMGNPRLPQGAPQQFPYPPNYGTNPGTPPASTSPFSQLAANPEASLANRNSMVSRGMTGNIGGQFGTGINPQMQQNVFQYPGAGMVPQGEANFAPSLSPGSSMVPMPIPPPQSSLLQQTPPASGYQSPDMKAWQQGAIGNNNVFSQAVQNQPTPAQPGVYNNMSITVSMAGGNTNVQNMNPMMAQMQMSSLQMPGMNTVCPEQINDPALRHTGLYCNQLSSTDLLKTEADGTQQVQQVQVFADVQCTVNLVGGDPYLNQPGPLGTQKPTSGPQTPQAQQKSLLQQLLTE

Structure (SMILES)	PPARγ-ligand activity, steroid + liver cytosol + PAPS (PPARγ [1])	PPARγ-ligand activity, native steroid + liver cytosol (PPARγ [1])	staining for VEGF (VEGF)	expression of β-catenin (β-catenin)	expression of cyclin D1 (cyclin D1)	tumour volumes [2]	PPARγ-ligand activity of the 3β-sulfate (PPARγ [1])	PPARγ-ligand activity of the 3β-sulfate (PPARγ [1]; listed as 5-androstene-17α-ol-3β-sulfate)	expression of PPARδ (PPARδ)	expression of PPARγ (PPARγ [3]; DU-145, 100 nM, repeated experiment)	PPARγ expression (PPARγ [3]; PC-3 cells, 100 nM, repeated experiment)	expression of PPARγ (PPARγ [3]; both cell lines (PC-3, DU-145))	dead (PC-3)	viable (PC-3)	dead (MCF-7)	viable (MCF-7)	dead (DU-145)	viable (DU-145)	dead (SKBR-3)	viable (SKBR-3)
C[C@]12CC[C@H]3[C@@H]([C@@H](O)C=C4C[C@@H](O)CC[C@@]43C)[C@@H]1CC[C@H]2O [5-androstene-3β,7β,17α-triol, 3β,7β,17α-trihydroxy-androst-5-en]	insignificant responses	insignificant responses	almost complete disappearance of detectable VEGF In tumours in 2 cases, a modest downregulation in 1 and unchanged appearance in 1	down-regulation	down-regulation															
CC(=O)[C@@]1(O)CC[C@H]2[C@@H]3CC=C4C[C@@H](O)CC[C@]4(C)[C@H]3CC[C@@]21C [17αOH-pregnenolone, 17-hydroxy-pregnenolone (17α-OH)]	insignificant responses	insignificant responses	almost complete disappearance of staining for VEGF	same pattern, but even more marked	same pattern, but even more marked	~−50%														
C[C@]12CC[C@H]3[C@@H](CC=C4C[C@@H](OS(=O)(=O)O)CC[C@@]43C)[C@@H]1CC[C@H]2O [17α-AED-3βsulfate, 5-androstene-17α-ol-3β-sulfate]							shows PPARγ-activity	only sample demonstrating PPARγ-ligand activity	no effect	Expression of PPARγ was observed	increased	increased the expression of PPARγ significantly	12%	81%	15%	75%	18%	70%	21%	66%

— patent US20050192262A1, “Treatment of tumours” (priority 2001, published 2005)
